Experimental data from ChEMBL document CHEMBL4270672, “Synthesis and Biological Evaluation of Fused Tricyclic Heterocycle Piperazine (Piperidine) Derivatives As Potential Multireceptor Atypical Antipsychotics” (J Med Chem, 2018).
Calls of active or inactive are those of the source. The rule behind the calls is not given here.

Experiments:
[1] = target: 5-hydroxytryptamine receptor 2A (Rattus norvegicus, UniProt P14842); assay: Displacement of [3H]-ketanserine from serotonin 5-HT2A receptor in rat brain cortex homogenates incubated for 30 mins by liquid scintillation counting
Sequence of 5-hydroxytryptamine receptor 2A (Rattus norvegicus, UniProt P14842) (P14842 whole entry): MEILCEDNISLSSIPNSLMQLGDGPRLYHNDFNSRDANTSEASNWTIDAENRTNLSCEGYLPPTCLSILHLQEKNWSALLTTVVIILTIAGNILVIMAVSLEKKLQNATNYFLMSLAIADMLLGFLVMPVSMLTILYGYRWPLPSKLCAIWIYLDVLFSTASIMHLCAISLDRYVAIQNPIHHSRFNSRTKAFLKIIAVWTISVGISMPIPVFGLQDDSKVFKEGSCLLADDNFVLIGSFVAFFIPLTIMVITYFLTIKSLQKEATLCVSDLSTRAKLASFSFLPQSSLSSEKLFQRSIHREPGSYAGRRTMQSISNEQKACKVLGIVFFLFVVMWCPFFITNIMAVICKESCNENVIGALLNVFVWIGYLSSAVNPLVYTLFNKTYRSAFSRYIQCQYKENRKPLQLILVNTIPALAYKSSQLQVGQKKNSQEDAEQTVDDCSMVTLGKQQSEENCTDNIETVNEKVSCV

D(2) dopamine receptor [2] = target: D(2) dopamine receptor (Rattus norvegicus, UniProt P61169)
Sequence of D(2) dopamine receptor (Rattus norvegicus, UniProt P61169) (P61169 whole entry): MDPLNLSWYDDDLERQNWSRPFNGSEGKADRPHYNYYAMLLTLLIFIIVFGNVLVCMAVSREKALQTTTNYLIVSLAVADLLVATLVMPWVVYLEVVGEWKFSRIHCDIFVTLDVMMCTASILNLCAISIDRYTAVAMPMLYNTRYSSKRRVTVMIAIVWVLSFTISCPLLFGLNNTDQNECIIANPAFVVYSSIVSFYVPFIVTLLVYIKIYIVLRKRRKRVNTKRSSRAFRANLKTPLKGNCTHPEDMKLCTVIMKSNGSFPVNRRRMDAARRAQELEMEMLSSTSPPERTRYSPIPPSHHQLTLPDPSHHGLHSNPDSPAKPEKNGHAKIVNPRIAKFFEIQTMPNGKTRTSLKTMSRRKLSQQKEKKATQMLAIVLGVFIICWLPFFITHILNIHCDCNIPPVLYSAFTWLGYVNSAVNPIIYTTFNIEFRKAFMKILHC

[3] = target: T1, 5-hydroxytryptamine receptor 1A (Rattus norvegicus, UniProt P19327)
T1 sequence (P19327 whole entry): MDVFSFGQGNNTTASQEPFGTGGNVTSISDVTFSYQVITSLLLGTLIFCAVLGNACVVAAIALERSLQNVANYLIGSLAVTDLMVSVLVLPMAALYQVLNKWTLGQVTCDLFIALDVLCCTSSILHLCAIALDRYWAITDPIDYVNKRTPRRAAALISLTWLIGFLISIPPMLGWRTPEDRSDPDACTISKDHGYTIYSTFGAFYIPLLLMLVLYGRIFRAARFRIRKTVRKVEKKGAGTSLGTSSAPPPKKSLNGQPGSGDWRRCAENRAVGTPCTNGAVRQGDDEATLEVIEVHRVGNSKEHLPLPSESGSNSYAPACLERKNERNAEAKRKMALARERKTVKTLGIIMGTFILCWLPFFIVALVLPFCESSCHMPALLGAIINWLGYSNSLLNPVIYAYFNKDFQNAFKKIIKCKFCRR

Histamine H1 receptor = Histamine H1 receptor (Cavia porcellus, UniProt P31389)
Sequence of Histamine H1 receptor (P31389 whole entry): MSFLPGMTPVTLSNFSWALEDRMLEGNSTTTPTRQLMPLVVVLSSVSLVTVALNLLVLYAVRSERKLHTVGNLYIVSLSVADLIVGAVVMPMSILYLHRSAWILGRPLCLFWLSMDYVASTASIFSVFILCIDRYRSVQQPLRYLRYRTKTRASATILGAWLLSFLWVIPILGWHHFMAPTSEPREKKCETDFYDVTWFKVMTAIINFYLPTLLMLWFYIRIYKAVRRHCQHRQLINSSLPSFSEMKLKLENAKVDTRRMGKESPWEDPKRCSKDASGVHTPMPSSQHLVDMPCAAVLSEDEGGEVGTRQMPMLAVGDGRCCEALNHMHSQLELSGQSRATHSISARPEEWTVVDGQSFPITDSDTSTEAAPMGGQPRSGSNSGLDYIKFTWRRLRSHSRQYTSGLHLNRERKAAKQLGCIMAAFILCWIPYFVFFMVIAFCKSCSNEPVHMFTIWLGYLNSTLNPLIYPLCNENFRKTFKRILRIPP
Description: Displacement of [3H]-mepyramine from histamine H1 receptor in guinea pig cerebellum homogenates incubated for 60 mins by liquid scintillation counting

[4] = target: T2, 5-hydroxytryptamine receptor 2C (Rattus norvegicus, UniProt P08909)
T2 sequence (P08909 whole entry): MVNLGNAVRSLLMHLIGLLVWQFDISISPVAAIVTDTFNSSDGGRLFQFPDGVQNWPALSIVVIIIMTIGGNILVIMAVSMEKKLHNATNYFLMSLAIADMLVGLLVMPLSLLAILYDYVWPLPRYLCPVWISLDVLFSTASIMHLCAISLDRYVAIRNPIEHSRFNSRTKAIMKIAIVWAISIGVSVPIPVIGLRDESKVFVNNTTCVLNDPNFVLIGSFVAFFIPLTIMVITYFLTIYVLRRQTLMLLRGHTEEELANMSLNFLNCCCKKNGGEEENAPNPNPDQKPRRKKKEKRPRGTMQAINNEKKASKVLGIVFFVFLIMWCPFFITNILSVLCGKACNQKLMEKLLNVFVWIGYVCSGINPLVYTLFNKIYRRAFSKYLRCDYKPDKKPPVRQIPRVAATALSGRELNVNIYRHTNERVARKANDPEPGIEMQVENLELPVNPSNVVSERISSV

D(3) dopamine receptor = D(3) dopamine receptor (Rattus norvegicus, UniProt P19020)
Sequence of D(3) dopamine receptor (P19020 whole entry): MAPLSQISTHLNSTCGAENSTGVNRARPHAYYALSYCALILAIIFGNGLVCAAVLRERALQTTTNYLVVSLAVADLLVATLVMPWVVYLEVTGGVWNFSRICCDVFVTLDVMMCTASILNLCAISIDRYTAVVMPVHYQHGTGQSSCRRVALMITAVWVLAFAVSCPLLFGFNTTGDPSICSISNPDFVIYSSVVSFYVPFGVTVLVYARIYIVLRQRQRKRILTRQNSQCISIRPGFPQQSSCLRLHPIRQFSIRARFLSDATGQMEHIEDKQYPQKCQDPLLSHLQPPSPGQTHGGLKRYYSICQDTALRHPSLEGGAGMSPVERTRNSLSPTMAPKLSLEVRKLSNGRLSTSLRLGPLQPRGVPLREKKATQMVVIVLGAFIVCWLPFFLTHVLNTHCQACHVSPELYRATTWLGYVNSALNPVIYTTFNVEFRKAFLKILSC

[5] = target: T3, Adrenergic receptor alpha-1 (Rattus norvegicus, UniProt P15823+P23944+P43140)
T3 sequence (P15823 whole entry): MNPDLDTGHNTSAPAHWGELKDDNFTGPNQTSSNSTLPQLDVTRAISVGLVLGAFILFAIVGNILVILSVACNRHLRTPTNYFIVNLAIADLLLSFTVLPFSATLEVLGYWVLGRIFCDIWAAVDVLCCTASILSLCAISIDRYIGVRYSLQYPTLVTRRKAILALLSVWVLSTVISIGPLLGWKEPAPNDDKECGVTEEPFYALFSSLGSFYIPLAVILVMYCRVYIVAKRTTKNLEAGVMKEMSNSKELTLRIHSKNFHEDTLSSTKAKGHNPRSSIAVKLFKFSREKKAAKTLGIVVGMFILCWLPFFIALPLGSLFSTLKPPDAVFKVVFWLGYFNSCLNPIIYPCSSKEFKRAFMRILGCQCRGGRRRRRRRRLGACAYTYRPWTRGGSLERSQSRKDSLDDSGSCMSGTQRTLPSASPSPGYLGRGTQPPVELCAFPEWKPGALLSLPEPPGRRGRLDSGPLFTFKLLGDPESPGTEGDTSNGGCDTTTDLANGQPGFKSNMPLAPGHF
T3 sequence (P23944 whole entry): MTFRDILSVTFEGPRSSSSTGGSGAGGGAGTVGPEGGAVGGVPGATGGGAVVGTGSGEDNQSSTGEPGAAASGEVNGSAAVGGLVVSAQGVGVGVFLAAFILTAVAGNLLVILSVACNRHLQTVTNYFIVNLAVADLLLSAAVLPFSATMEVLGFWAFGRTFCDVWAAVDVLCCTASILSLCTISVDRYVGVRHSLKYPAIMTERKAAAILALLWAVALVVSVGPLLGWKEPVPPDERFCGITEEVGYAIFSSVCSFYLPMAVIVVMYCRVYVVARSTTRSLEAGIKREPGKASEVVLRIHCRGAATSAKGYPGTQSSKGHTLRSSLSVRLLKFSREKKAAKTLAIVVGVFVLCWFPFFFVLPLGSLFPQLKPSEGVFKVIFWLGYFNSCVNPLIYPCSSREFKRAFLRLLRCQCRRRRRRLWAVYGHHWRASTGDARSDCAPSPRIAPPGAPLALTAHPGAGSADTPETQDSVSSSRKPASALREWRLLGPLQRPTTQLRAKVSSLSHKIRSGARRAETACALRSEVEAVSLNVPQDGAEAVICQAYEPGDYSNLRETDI
T3 sequence (P43140 whole entry): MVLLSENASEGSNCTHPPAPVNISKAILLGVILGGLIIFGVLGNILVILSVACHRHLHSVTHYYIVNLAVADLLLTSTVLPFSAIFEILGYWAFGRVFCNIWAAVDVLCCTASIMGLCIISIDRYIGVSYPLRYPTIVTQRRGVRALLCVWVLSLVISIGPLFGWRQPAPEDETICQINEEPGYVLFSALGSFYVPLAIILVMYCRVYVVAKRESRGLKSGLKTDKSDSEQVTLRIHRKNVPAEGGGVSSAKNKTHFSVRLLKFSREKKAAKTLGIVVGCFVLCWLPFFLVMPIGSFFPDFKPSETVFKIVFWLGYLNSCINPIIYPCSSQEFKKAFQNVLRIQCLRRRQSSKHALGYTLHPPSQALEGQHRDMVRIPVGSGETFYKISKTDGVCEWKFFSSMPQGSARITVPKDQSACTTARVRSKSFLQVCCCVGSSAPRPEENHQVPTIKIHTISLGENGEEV
Description: Displacement of [3H]-prazosin from alpha-1 adrenergic receptor in rat cerebral cortex homogenates incubated for 60 mins by liquid scintillation counting

[6] = target: T4, 5-hydroxytryptamine receptor 6 (Homo sapiens, UniProt P50406); assay: biochemical
T4 sequence (P50406 whole entry): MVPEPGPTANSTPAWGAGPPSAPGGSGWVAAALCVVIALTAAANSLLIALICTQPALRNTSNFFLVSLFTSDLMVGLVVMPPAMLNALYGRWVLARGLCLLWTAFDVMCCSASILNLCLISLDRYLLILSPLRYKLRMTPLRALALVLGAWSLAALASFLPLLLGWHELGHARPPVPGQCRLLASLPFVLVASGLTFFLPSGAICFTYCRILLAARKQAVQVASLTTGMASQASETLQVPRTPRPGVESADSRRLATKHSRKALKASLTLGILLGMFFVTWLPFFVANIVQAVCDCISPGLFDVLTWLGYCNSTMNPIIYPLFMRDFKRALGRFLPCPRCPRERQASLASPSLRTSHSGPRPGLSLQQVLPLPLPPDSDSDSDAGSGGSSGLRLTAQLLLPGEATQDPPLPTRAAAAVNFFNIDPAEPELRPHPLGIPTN

Mus musculus [7] = assay: Induction of catalepsy in po dosed Kunming mouse measured after 60 secs; type: organism-based; conditions: in vivo, 1 min
[8] = Therapeutic index, ratio of ED50 for catalepsy in Kunming mouse to ED50 for apomorphine-induced climbing in Kunming mouse; type: toxicity, organism-based; conditions: in vivo, read-out: Ratio ED50
[9] = Therapeutic index, ratio of ED50 for catalepsy in Kunming mouse to ED50 for MK-801-induced hyperactivity in Kunming mouse; type: toxicity, organism-based; conditions: in vivo, read-out: Ratio ED50
Mus musculus [10] = organism: Mus musculus; assay: animal or person; conditions: Kunming, po
Description: Antipsychotic activity in po dosed Kunming mouse assessed as reduction in apomorphine-induced climbing pretreated for 30 mins followed by apomorphine injection measured at 10 to 30 mins post dose

Mus musculus [11] = organism: Mus musculus; assay: animal or person; conditions: Kunming, po; remark: listed apart in the source
Description: Antipsychotic activity in po dosed Kunming mouse assessed as reduction in MK-801-induced hyperactivity pretreated for 60 mins followed by MK-801 challenge measured for 90 mins

[12] = target: Voltage-gated inwardly rectifying potassium channel KCNH2 (Homo sapiens, UniProt Q12809)
Sequence of Voltage-gated inwardly rectifying potassium channel KCNH2 (Q12809 whole entry, canonical isoform): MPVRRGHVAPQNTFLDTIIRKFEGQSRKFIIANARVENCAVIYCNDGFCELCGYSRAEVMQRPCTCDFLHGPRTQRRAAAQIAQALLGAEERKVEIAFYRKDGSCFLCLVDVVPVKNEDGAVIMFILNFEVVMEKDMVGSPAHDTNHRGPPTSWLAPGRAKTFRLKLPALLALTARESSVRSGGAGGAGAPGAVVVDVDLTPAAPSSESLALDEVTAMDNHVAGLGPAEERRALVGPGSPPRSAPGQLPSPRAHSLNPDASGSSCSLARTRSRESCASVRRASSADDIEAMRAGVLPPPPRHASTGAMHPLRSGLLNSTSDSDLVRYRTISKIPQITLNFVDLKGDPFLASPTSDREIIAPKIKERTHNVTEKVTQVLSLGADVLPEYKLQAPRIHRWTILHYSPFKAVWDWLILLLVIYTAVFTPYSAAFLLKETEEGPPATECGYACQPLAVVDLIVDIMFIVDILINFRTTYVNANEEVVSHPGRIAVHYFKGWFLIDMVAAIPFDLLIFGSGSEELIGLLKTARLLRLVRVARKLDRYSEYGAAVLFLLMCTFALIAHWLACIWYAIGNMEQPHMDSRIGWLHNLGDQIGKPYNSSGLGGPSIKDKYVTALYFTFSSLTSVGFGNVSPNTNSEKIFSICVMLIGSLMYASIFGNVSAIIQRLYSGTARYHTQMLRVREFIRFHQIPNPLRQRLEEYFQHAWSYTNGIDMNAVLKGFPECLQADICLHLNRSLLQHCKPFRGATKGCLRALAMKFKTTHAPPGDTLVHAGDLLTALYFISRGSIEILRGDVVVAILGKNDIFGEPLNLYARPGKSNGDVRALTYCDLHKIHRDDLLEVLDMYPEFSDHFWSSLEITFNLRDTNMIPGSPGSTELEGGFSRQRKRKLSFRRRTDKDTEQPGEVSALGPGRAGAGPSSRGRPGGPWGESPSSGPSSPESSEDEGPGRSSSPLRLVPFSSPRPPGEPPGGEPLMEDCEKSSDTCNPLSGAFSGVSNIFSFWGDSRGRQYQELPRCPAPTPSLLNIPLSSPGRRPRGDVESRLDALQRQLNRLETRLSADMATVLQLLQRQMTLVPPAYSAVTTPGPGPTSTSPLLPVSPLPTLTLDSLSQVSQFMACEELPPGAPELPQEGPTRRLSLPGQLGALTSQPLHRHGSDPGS
Description: Inhibition of human ERG expressed in HEK293 cells at -50 mV holding potential by patch clamp assay

D(2) dopamine receptor [13] = target: D(2) dopamine receptor (Homo sapiens, UniProt P14416); assay: Antagonist activity at dopamine D2 receptor long isoform (unknown origin) expressed in HEK293 cells assessed as inhibition of dopamine-induced calcium flux at 10 uM after 15 mins by calcium 4-dye based FLIPR assay relative to control; type: functional, cell-based
Sequence of D(2) dopamine receptor (Homo sapiens, UniProt P14416) (P14416 whole entry, canonical isoform): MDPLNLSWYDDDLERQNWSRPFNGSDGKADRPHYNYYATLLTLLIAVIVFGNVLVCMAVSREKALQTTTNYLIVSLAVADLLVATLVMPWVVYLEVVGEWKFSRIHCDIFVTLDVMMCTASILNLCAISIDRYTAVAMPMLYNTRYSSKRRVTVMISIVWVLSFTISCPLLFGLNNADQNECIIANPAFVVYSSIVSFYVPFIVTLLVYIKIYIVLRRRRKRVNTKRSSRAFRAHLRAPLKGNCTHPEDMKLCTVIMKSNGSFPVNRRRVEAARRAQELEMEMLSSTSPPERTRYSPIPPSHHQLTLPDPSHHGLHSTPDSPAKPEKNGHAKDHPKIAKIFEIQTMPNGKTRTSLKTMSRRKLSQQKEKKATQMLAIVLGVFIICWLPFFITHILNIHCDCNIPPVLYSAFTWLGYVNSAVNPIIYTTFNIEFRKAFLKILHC

Rattus norvegicus [14] = assay: Antipsychotic activity in po dosed Sprague-Dawley rat assessed as reduction in conditioned avoidance response measured at 90 mins post single dose; type: functional; conditions: 1.5 h
Mus musculus [15] = assay: Induction of weight gain in Kunming mouse at 0.03 to 0.27 mg/kg, po administered for 28 days measured every day during compound dosing; type: organism-based; conditions: in vivo, 672 h
Rattus norvegicus [16] = assay: Cognitive enhancing effect in Sprague-Dawley rat assessed as effect on total exploration time for familiar objects in acquisition trial at 0.2 mg/kg, po administered 1 hr measured for 3 mins by novel object recognition test; type: functional, organism-based
Rattus norvegicus [17] = assay: Cognitive enhancing effect in Sprague-Dawley rat assessed as effect on total exploration time for familiar objects in acquisition trial at 0.3 mg/kg, po administered 1 hr measured for 3 mins by novel object recognition test; type: functional, organism-based
[18] = target: 5-hydroxytryptamine receptor 2A (Homo sapiens, UniProt P28223); assay: Agonist activity at serotonin 5-HT2A receptor (unknown origin) expressed in HEK293 cells assessed as induction of calcium flux at 10 uM after 60 mins by calcium 4-dye based FLIPR assay relative to control; type: functional, cell-based
Sequence of 5-hydroxytryptamine receptor 2A (Homo sapiens, UniProt P28223) (P28223 whole entry): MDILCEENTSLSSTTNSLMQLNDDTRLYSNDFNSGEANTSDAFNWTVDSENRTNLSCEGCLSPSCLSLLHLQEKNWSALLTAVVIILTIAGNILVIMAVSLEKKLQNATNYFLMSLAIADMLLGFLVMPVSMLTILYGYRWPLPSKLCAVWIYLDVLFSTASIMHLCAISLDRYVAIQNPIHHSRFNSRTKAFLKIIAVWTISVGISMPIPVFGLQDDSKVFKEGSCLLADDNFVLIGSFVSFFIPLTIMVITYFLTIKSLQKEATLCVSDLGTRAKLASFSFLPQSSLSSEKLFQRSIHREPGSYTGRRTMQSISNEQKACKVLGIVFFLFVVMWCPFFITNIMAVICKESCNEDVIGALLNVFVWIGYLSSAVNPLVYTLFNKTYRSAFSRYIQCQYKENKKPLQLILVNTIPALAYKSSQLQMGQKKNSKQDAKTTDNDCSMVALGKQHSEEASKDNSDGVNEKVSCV

[19] = target: T4, 5-hydroxytryptamine receptor 6; assay: Agonist activity at serotonin 5-HT6 receptor (unknown origin) expressed in HEK293 cells assessed as induction of calcium flux at 10 uM after 60 mins by calcium 4-dye based FLIPR assay relative to control; type: functional, cell-based

SMILES | Ki [1] [nM] | Ki (D(2) dopamine receptor [2]) [nM] | Ki [3] [nM] | also measured
O=C1CCc2cc(C(O)CCCCN3CCC(c4noc5cc(F)ccc45)CC3)cc3c2N1CC3 (stereo not drawn) | 0.4 | 8.4 | 12 | Ki (Histamine H1 receptor): 43.5 nM; Ki [4]: 33.7 nM; Ki (D(3) dopamine receptor): 116 nM; Ki [5]: 596 nM; Ki [6]: 29.5 nM
O=C(CCCN1CCC(O)(c2ccc(Cl)cc2)CC1)c1ccc(F)cc1 [HALOPERIDOL] |  |  |  | ED50 (Mus musculus [7]): 0.12 mg/kg; selectivity ratio [8]: 1.09; selectivity ratio [9]: 0.75; ED50 (Mus musculus [10]): 0.11 mg/kg; ED50 (Mus musculus [11]): 0.16 mg/kg
O=C1CCc2cc(C(O)CCCN3CCC(c4noc5cc(F)ccc45)CC3)cc3c2N1CC3 (stereo not drawn) | 69.5 |  | 22.5 | Ki (Histamine H1 receptor): 339 nM; Ki [4]: 742 nM; Ki (D(3) dopamine receptor): 45.4 nM; IC50 [12]: 1900 nM; Ki [5]: 339 nM; Ki [6]: 6.36 nM
O=C1CCc2cc(CCCCN3CCC(c4noc5cc(F)ccc45)CC3)cc3c2N1CC3 | 19.3 | 9.9 | 11.7 | Ki (Histamine H1 receptor): 712 nM; Ki [4]: 540 nM; Ki (D(3) dopamine receptor): 54.9 nM; Ki [5]: 99.3 nM; Ki [6]: 17.7 nM
CN1CCc2cc(Cl)c(O)cc2[C@@H](c2ccccc2)C1 |  |  |  | inhibition (D(2) dopamine receptor [13]): 99%
O=C(CCN1CCN(c2cccc(Cl)c2Cl)CC1)c1cc2c3c(c1)CCC(=O)N3CCC2 | 207 | 1220 | 269 | 
O=C(CCCN1CCC(c2noc3cc(F)ccc23)CC1)c1cc2c3c(c1)CCC(=O)N3CCC2 | 22.3 | 18.2 | 32.9 | 
Cc1cccc(N2CCN(CCC(=O)c3cc4c5c(c3)CCC(=O)N5CCC4)CC2)c1C | 207 | 1850 | 196 | 
Cc1nc2n(c(=O)c1CCN1CCC(c3noc4cc(F)ccc34)CC1)CCCC2 [RISPERIDONE] |  |  |  | ED50 (Mus musculus [7]): 0.51 mg/kg; ED50 (Rattus norvegicus [14]): 0.52 mg/kg; Activity (Mus musculus [15]): Toxic; Activity (Rattus norvegicus [16]): inactive; ED50 (Mus musculus [10]): 0.28 mg/kg; ED50 (Mus musculus [11]): 0.011 mg/kg
O=C1CCc2cc(CCCCN3CCN(c4cccc(Cl)c4Cl)CC3)cc3c2N1CCC3 | 97.8 | 394 | 194 | 
O=C(CCCN1CCC(c2noc3cc(F)ccc23)CC1)c1cc2c3c(c1)CCN3C(=O)CC2 | 9.9 | 10.3 | 12 | Ki (Histamine H1 receptor): 421 nM; Ki [4]: 610 nM; Ki (D(3) dopamine receptor): 61.3 nM; Ki [5]: 491.3 nM; Ki [6]: 241 nM
O=C1CCc2cc(CCCN3CCN(c4cccc(Cl)c4Cl)CC3)cc3c2N1CCC3 | 186 | 582 | 196 | 
O=C1CCc2cc(CCCN3CCC(c4noc5cc(F)ccc45)CC3)cc3c2N1CCC3 | 73.9 | 44.2 | 58.6 | 
O=C(CCN1CCN(c2nsc3ccccc23)CC1)c1cc2c3c(c1)CCC(=O)N3CCC2 | 72 | 182 | 129 | 
O=C(CCCN1CCN(c2cccc(Cl)c2Cl)CC1)c1cc2c3c(c1)CCN3C(=O)CC2 | 37.8 | 104 | 53.9 | 
O=C(CCN1CCN(c2ccc(Cl)cc2)CC1)c1cc2c3c(c1)CCC(=O)N3CCC2 | 720 | > 2000 | 1630 | 
CCN(C)C(=O)Oc1cccc([C@H](C)N(C)C)c1 |  |  |  | Activity (Rattus norvegicus [17]): Active
O=C(CCN1CCC(c2noc3cc(F)ccc23)CC1)c1cc2c3c(c1)CCN3C(=O)CC2 | 17.4 | 19.7 | 16.4 | 
NCCc1c[nH]c2ccc(O)cc12 |  |  |  | Activity [18]: 94.5%; Activity [19]: 98%
O=C(CN1CCC(c2noc3cc(F)ccc23)CC1)c1cc2c3c(c1)CCC(=O)N3CCC2 | 765 | 900 | > 2000 | 
O=C(CCCCCN1CCC(c2noc3cc(F)ccc23)CC1)c1cc2c3c(c1)CCN3C(=O)CC2 | 34.7 | 89.1 | 168 | 
